# Laboratory results from patent US20250305981A1, “SWITCHING PEPTIDE AND IMMUNOASSAY USING SAME” (OPTOLANE TECHNOLOGIES INC., priority 2021, published 2025).
# Experiments:
# Anti-hCG antibody(m) = experiment: Fluorescence before/after antigen binding, peptide bound to immobilized antibody (Table 2); design: species or system mouse; conditions: fluorescently labeled peptide
# Anti-HRP antibody(r) = experiment: as above; design: species or system rabbit; conditions: fluorescently labeled peptide
# [1] = tested on: Fab region of rabbit anti-HRP antibodies; experiment: Papain treatment of immobilized antibody bound to fluorescently labeled switching peptide (FIG. 6B); type: binding; conditions: after vs before papain
# Excerpt: In the case of this experiment, after immobilization of the antibodies (rabbit anti-HRP antibodies) on the microplate, binding between the antibody and the switching peptide was induced by treatment with a fluorescently labeled switching peptide, the unbound switching peptide was removed, and then the Fab region was hydrolyzed from the immobilized antibodies by adding papain, which is a protease. Referring to FIG. 6A, the fluorescence at the bottom (B) of the microplate is expected to decrease after the papain reaction because the fluorescently labeled switching peptides are bound to the Fab region of antibodies, and the fluorescence in the solution is expected to increase because the Fab region to which the switching peptide is bound is hydrolyzed and dissolved into the solution. This prediction is proven to be true from the graphs of FIG. 6B.
# [2] = biological target: anti-HRP antibody from a rabbit; experiment: One-step immunoassay with fluorescently labeled peptides, varying HRP antigen concentration (FIG. 7); type: binding; conditions: estimated; HRP antigen 0.3 to 100 μM, fluorescence in solution; read-out: Equilibrium dissociation constant
# Excerpt: FIG. 7A is a schematic diagram for explaining an immunoassay method using fluorescently labeled peptide compounds of Example 1, and FIGS. 7B and 7C are graphs illustrating the fluorescence intensities in a solution and at a bottom of the microplate depending on a concentration of the antigen measured by the immunoassay method illustrated in FIG. 7A. In this experiment, an anti-HRP antibody from a rabbit immobilized on a microplate was used as the binding antibody and HRP was used as the antigen.
# Referring to FIGS. 7A to 7C, as a result of performing immunoassay while varying the concentration of antigen HRP from 0.3 to 100 μM, for the four types of switching peptides (H1, H2, L1, L2), an increase in the fluorescence intensity in the solution was observed depending on the concentration of the antigen (HRP).
# Equilibrium dissociation constants of the H1, H2, L1, and L2 peptides were estimated to be 1.65, 3.11, 3.29, and 1.48 μM, and the difference in the dissociation constant for each switching peptide means that each switching peptide has a different detection area for each antigen.
# L2 peptide = experiment: FRET test of specific interaction between H1 and L2 peptides on microplate; type: binding; conditions: TAMRA-H1 and FAM-L2, concentration of H1 peptide varied
# Excerpt: (§1) Here, at the ends of the L1 and L2 peptides, a first fluorescent label, FAM (λex=488 nm, λem=532 nm) was modified, and at the ends of the H1 and H2 peptides, a second fluorescent label, TAMRA (λex=532 nm, λem=570 nm) was modified.
# Anti-CRP antibody(r) = experiment: Fluorescence before/after antigen binding, peptide bound to immobilized antibody (Table 2); design: species or system rabbit; conditions: fluorescently labeled peptide
# Anti-HBsAg antibody(g) = experiment: as above; design: species or system goat; conditions: for fluorescence intensity at the bottom of the plate decreased by: after treatment with antigen HBsAg; for Bottom (B) of microplate After antigen binding, fluorescence intensity / Bottom (B) of microplate Before antigen binding, fluorescence intensity / Bottom (B) of microplate Change (%) / In solution (S) After antigen binding, fluorescence intensity / In solution (S) Before antigen binding, fluorescence intensity: antigen HBsAg, fluorescently labeled peptide
# H2 peptide = experiment: FRET test of specific interaction between L1 and H2 peptides on microplate; type: binding; conditions: FAM-L1 and TAMRA-H2, concentration of L1 peptide varied
# Excerpt: as §1
# Referring to FIG. 4A, the interaction between the L1 and H2 peptides was observed by changing the concentration of the L1 peptide, and the FRET intensity increased with increasing the concentration of the L1 peptide.
# [3] = Dynamic laser scattering (DLS) of binding antibody bound to ferrocene-labeled switching peptide (FIG. 8A); type: physicochemical; conditions: compared with antibody bound to L2 or H1 peptide
# Experimental: FIG. 8A is a result obtained by performing dynamic laser scattering (DLS) to compare the hydrodynamic radius of the switching peptides of the present disclosure. Referring to FIG. 8A, it can be confirmed that DLS was performed using intensity measurement of scattered light under monochromatic laser light, and a hydrodynamic radius of the binding antibody bound to the L1 or H2 peptide was smaller than that of the bound antibody bound to the L2 or H1 peptide.
# [4] = Diffusion coefficient (Dox) of ferrocene-labeled switching peptides in CV analysis (FIG. 8C); type: physicochemical; conditions: compared with H1 and L2 peptides
# Excerpt: FIG. 8C is a graph obtained by measuring a diffusion coefficient (Dox) of the switching peptides of the present disclosure in CV analysis. […] Therefore, L1 and H2 peptides labeled with ferrocene may be optimal probes for electrochemical immunoassay.
# Sequence of H2 peptide (as listed by the source): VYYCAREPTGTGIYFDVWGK
Substance,"Bottom (B) of microplate After antigen binding, fluorescence intensity (Anti-hCG antibody(m))","Bottom (B) of microplate Before antigen binding, fluorescence intensity (Anti-hCG antibody(m))",Bottom (B) of microplate Change (%) (Anti-hCG antibody(m)),"In solution (S) After antigen binding, fluorescence intensity (Anti-hCG antibody(m))","In solution (S) Before antigen binding, fluorescence intensity (Anti-hCG antibody(m))",In solution (S) Change (%) (Anti-hCG antibody(m)),"Bottom (B) of microplate After antigen binding, fluorescence intensity (Anti-HRP antibody(r))","Bottom (B) of microplate Before antigen binding, fluorescence intensity (Anti-HRP antibody(r))",Bottom (B) of microplate Change (%) (Anti-HRP antibody(r)),"In solution (S) After antigen binding, fluorescence intensity (Anti-HRP antibody(r))","In solution (S) Before antigen binding, fluorescence intensity (Anti-HRP antibody(r))",decrease of fluorescence intensity at the bottom of the microplate after papain treatment [1] [%],increase of fluorescence intensity in the solution after papain treatment [1],Kd [2] [nM],"Bottom (B) of microplate After antigen binding, fluorescence intensity (Anti-CRP antibody(r))","Bottom (B) of microplate Before antigen binding, fluorescence intensity (Anti-CRP antibody(r))",Bottom (B) of microplate Change (%) (Anti-CRP antibody(r)),"In solution (S) After antigen binding, fluorescence intensity (Anti-CRP antibody(r))","In solution (S) Before antigen binding, fluorescence intensity (Anti-CRP antibody(r))",In solution (S) Change (%) (Anti-CRP antibody(r)),other results
"SYWIH WVKQR PGQGL EWIGE [H1, homology to FR2 region of the heavy chain]",1940,5646,−65.6,3921,1281,+206%,1451,11840,−87.7,21965,2596,84.3,"2,184%",1650,3595,4912,−26.8,5659,2242,+152%,"specific interaction (FRET intensity) (L2 peptide): specific interaction; fluorescence intensity at the bottom of the plate decreased by (Anti-HBsAg antibody(g)): 41.1%; Bottom (B) of microplate After antigen binding, fluorescence intensity (Anti-HBsAg antibody(g)): 4618; Bottom (B) of microplate Before antigen binding, fluorescence intensity (Anti-HBsAg antibody(g)): 11225; Bottom (B) of microplate Change (%) (Anti-HBsAg antibody(g)): −58.9%; In solution (S) After antigen binding, fluorescence intensity (Anti-HBsAg antibody(g)): 11453; In solution (S) Before antigen binding, fluorescence intensity (Anti-HBsAg antibody(g)): 2242"
"TYLEW YPQKP GQSPK LLIYK [L1, homology to FR2 region of the light chain]",1777,4630,−61.6,3580,1248,+187%,1990,15608,−87.3,12280,2687,84.8,"1,032%",3290,3456,6719,−48.6,6505,741,+778%,"specific interaction (FRET intensity) (H2 peptide): specific interaction; hydrodynamic radius of the binding antibody bound to the peptide [3]: smaller; fluorescence intensity at the bottom of the plate decreased by (Anti-HBsAg antibody(g)): 48.7%; Bottom (B) of microplate After antigen binding, fluorescence intensity (Anti-HBsAg antibody(g)): 5388; Bottom (B) of microplate Before antigen binding, fluorescence intensity (Anti-HBsAg antibody(g)): 11062; Bottom (B) of microplate Change (%) (Anti-HBsAg antibody(g)): −51.3%; In solution (S) After antigen binding, fluorescence intensity (Anti-HBsAg antibody(g)): 20501; In solution (S) Before antigen binding, fluorescence intensity (Anti-HBsAg antibody(g)): 2779; diffusion coefficient (Dox) [4]: relatively higher"
"VYYCA REPTG TGIYF DVWGK [H2, homology to FR3 or FR4 region of the heavy chain]",23320,23320,−88.5,8545,1654,+416%,1806,122230,−85.2,18128,2272,58.7,"2,356%",3110,22205,22205,−39.5,16311,2099,+677%,"hydrodynamic radius of the binding antibody bound to the peptide [3]: smaller; fluorescence intensity at the bottom of the plate decreased by (Anti-HBsAg antibody(g)): 63.9%; Bottom (B) of microplate After antigen binding, fluorescence intensity (Anti-HBsAg antibody(g)): 18773; Bottom (B) of microplate Before antigen binding, fluorescence intensity (Anti-HBsAg antibody(g)): 29367; Bottom (B) of microplate Change (%) (Anti-HBsAg antibody(g)): −36.1%; In solution (S) After antigen binding, fluorescence intensity (Anti-HBsAg antibody(g)): 9136; In solution (S) Before antigen binding, fluorescence intensity (Anti-HBsAg antibody(g)): 1784; diffusion coefficient (Dox) [4]: relatively higher"
"VYYCF QGSHV PFTK [L2, homology to FR3 or FR4 region of the light chain]",3072,33156,−90.7,9402,1692,+456%,3208,12584,−74.5,16135,2315,72.5,"2,452%",1480,11236,20394,−44.9,32187,3274,+883%,"fluorescence intensity at the bottom of the plate decreased by (Anti-HBsAg antibody(g)): 35.2%; Bottom (B) of microplate After antigen binding, fluorescence intensity (Anti-HBsAg antibody(g)): 9856; Bottom (B) of microplate Before antigen binding, fluorescence intensity (Anti-HBsAg antibody(g)): 28002; Bottom (B) of microplate Change (%) (Anti-HBsAg antibody(g)): −64.8%; In solution (S) After antigen binding, fluorescence intensity (Anti-HBsAg antibody(g)): 15359; In solution (S) Before antigen binding, fluorescence intensity (Anti-HBsAg antibody(g)): 2279"
